{
  "source": "paper PMC2259182",
  "about": "“Identification of biomarkers for the antiangiogenic and antitumour activity of the superoxide dismutase 1 (SOD1) inhibitor tetrathiomolybdate (ATN-224)” (British Journal of Cancer, 2008)",
  "molecular_target": "T1, Purified bovine SOD1 (Bos taurus, UniProt P00442)",
  "T1 construct": "commercial purified enzyme (Sigma)",
  "T1 sequence (P00442 2-152)": "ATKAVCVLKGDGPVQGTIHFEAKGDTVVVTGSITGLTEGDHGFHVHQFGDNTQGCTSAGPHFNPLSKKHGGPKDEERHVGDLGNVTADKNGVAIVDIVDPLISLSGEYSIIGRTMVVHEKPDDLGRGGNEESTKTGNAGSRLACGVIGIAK",
  "experiment": "WST-1 reduction by xanthine oxidase-generated superoxide",
  "type": "biochemical",
  "data": [
    {"smiles": "[S]=[Mo](=[S])([SH])[SH]", "note": "[ATN-224]", "values": [
      {"measurement": "IC50", "result": 2030, "unit": "nM"}
    ]}
  ]
}
